Measurements as given in ChEMBL document CHEMBL1132395, “Inhibition of herpes proteases and antiviral activity of 2-substituted thieno[2,3-d]oxazinones” (Bioorg Med Chem Lett, 1999).
Calls of active or inactive are those of the source. The rule behind the calls is not given here.

Key:
[1] = biological target: T1, Capsid scaffolding protein (Human herpesvirus 2 (strain HG52) (HHV-2) (Human herpes simplex virus2), UniProt P89449); assay: Inhibitory activity against herpes simplex virus type 2 (HSV-2) protease was determined using quenched fluorescence assay
T1 sequence (P89449 whole entry): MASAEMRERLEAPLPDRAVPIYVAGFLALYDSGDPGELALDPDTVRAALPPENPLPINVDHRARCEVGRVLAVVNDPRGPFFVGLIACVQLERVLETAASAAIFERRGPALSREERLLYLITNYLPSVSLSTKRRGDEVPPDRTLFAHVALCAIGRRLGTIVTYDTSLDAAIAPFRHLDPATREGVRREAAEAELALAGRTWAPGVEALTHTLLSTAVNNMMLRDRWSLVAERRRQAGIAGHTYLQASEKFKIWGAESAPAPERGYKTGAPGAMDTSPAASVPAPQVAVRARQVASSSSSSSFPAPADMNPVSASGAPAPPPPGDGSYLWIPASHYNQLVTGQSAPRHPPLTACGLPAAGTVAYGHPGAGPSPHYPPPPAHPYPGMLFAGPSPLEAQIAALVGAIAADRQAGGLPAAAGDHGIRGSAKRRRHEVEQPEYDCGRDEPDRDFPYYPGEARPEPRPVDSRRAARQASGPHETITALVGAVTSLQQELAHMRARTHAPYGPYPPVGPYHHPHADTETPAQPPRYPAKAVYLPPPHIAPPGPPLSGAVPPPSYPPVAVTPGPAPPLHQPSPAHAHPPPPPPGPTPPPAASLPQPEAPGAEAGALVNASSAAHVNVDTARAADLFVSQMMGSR

Cytomegalovirus [2] = assay: Inhibitory activity against cytomegalovirus (CMV) herpes was determined using quenched fluorescence assay; type: functional, organism-based; settings: Human betaherpesvirus 5
MRC5 = assay: Cytotoxicity by using MRC-5 cell culture assay (XTT); type: functional; settings: Homo sapiens, read-out: TC50 (the source's name)
Human alphaherpesvirus 2 [3] = assay: Inactivation rate against herpes simplex type 2 (HSV-2) was determined; type: functional
Human alphaherpesvirus 2 [4] = assay: Cytotoxicity in herpes simplex virus type 2 (HSV-2); type: functional
Human alphaherpesvirus 2 [5] = assay: Cytotoxicity against herpes simplex virus type 2 (HSV-2) infected cells by pulse chase (PC) assay; type: functional
Human alphaherpesvirus 3 = assay: Inactivation rate against Varicella Zoster Virus (VZV) was determined; type: functional
Human alphaherpesvirus 2 [6] = assay: Cytotoxicity in herpes simplex virus type 2 (HSV-2); NI= no inhibition; type: functional, organism-based
Human alphaherpesvirus 2 [7] = assay: Cytotoxicity against herpes simplex virus type 2 (HSV-2); type: functional
Human alphaherpesvirus 2 [8] = assay: Inhibitory activity against herpes simplex virus type 2 (HSV-2) herpes protease was determined using quenched fluorescence assay; type: functional, organism-based
Cytomegalovirus [9] = assay: Inhibitory activity against cytomegalovirus (CMV) herpes protease was determined using quenched fluorescence assay; type: functional, organism-based; settings: Human betaherpesvirus 5
Cytomegalovirus [10] = assay: Inhibitory activity against cytomegalovirus (CMV) protease was determined using quenched fluorescence assay (IA=inactive up to 20 uM); type: functional, organism-based
Human alphaherpesvirus 2 [11] = assay: Inhibitory activity against herpes simplex virus type 2 (HSV-2) protease was determined using quenched fluorescence assay (IA=inactive up to 20 uM); type: functional, organism-based
[12] = tested on: Varicella zoster virus protease (Varicella-zoster virus); assay: Inhibitory activity against Varicella Zoster Virus (VZV) protease was determined using quenched fluorescence assay (IA=inactive up to 20 uM)

Cc1csc2nc([C@H](C)NC(=O)/C=C/c3ccc(C=O)cc3)oc(=O)c12
IC50 [1]: 530 nM

COc1cccc(OC)c1/C=C/C(=O)N[C@@H](C)c1nc2scc(C)c2c(=O)o1
IC50 [1]: 1300 nM

Cc1csc2nc([C@H](C)NC(=O)/C=C/c3cccn3C)oc(=O)c12
IC50 [1]: 1000 nM

Cc1csc2nc([C@H](C)NC(=O)/C=C/c3ccccn3)oc(=O)c12
IC50 [1]: 500 nM

Cc1ccccc1/C=C/C(=O)N[C@@H](C)c1nc2scc(C)c2c(=O)o1
IC50 (Cytomegalovirus [2]): 20000 nM | IC50 [1]: 1500 nM

Cc1cc(/C=C/C(=O)N[C@@H](C)c2nc3scc(C)c3c(=O)o2)c(C)s1
IC50 [1]: 190 nM | CC50 (MRC5): 180000 nM | K obs / 1 (Human alphaherpesvirus 2 [3]): 53000 M⁻¹ s⁻¹ | PC50 (Human alphaherpesvirus 2 [4]): 12 µM | TC50 (Human alphaherpesvirus 2 [5]): 130000 nM | k obs / 1 (Human alphaherpesvirus 3): 76000 M⁻¹ s⁻¹

Cc1csc2nc([C@H](C)NC(=O)/C=C/c3ccc(Cl)s3)oc(=O)c12
IC50 [1]: 210 nM | CC50 (MRC5): 130000 nM | K obs / 1 (Human alphaherpesvirus 2 [3]): 58000 M⁻¹ s⁻¹ | PC50 (Human alphaherpesvirus 2 [4]): 18 µM | TC50 (Human alphaherpesvirus 2 [5]): >250000 nM | K obs / 1 (Human alphaherpesvirus 3): 60000 M⁻¹ s⁻¹

Cc1csc2nc([C@H](C)NC(=O)/C=C/c3ccc([N+](=O)[O-])s3)oc(=O)c12
IC50 [1]: 570 nM

Cc1csc2nc([C@H](C)NC(=O)/C=C/c3c(F)cccc3F)oc(=O)c12
IC50 [1]: 630 nM

Cc1csc2nc([C@H](C)NC(=O)/C=C/c3ccccc3Br)oc(=O)c12
IC50 [1]: 480 nM

Cc1csc2nc([C@H](C)NC(=O)C=C(c3cccs3)c3cccs3)oc(=O)c12
IC50 [1]: 110 nM | CC50 (MRC5): 95000 nM | K obs / 1 (Human alphaherpesvirus 2 [3]): 120000 M⁻¹ s⁻¹ | PC50 (Human alphaherpesvirus 2 [6]): inactive | TC50 (Human alphaherpesvirus 2 [5]): 21000 nM

Cc1csc2nc([C@H](C)NC(=O)/C=C/c3sccc3Br)oc(=O)c12
IC50 [1]: 250 nM

Cc1csc2nc([C@H](C)NC(=O)/C=C/c3ccc(Br)o3)oc(=O)c12
IC50 [1]: 490 nM

Cc1csc2nc([C@H](C)NC(=O)/C=C/c3ccc(N(C)C)cc3)oc(=O)c12
IC50 [1]: 570 nM

Cc1csc2nc([C@H](C)NC(=O)/C=C/c3ccsc3)oc(=O)c12
IC50 (Cytomegalovirus [2]): 380 nM | IC50 [1]: 330 nM

Cc1csc2nc([C@H](C)NC(=O)/C=C/c3ccc(O)cc3Cl)oc(=O)c12
IC50 (Cytomegalovirus [2]): 190 nM | IC50 [1]: 230 nM | CC50 (MRC5): 100000 nM | PC50 (Human alphaherpesvirus 2 [6]): inactive | TC50 (Human alphaherpesvirus 2 [5]): 56000 nM

Cc1csc2nc([C@H](C)NC(=O)/C=C/c3ccccc3Cl)oc(=O)c12
IC50 [1]: 610 nM

CCOc1ccccc1/C=C/C(=O)N[C@@H](C)c1nc2scc(C)c2c(=O)o1
IC50 [1]: 560 nM

Cc1ccsc1/C=C/C(=O)N[C@@H](C)c1nc2scc(C)c2c(=O)o1
IC50 [1]: 330 nM

Cc1csc2nc([C@H](C)NC(=O)/C=C/c3cccc(Cl)c3)oc(=O)c12
IC50 [1]: 980 nM

Cc1csc2nc([C@H](C)NC(=O)/C=C/c3ccccc3[N+](=O)[O-])oc(=O)c12
IC50 [1]: 720 nM

Cc1csc2nc([C@H](C)NC(=O)/C=C/c3c(Cl)cccc3Cl)oc(=O)c12
IC50 [1]: 1970 nM | K obs / 1 (Human alphaherpesvirus 2 [3]): 33000 M⁻¹ s⁻¹ | K obs / 1 (Human alphaherpesvirus 3): 33000 M⁻¹ s⁻¹

Cc1csc2nc([C@H](C)NC(=O)C=C(c3ccccc3)c3ccccc3)oc(=O)c12
IC50 [1]: 500 nM

Cc1csc2nc([C@H](C)NC(=O)/C=C/c3ccccc3)oc(=O)c12
IC50 [1]: 300 nM | CC50 (MRC5): 56000 nM | K obs / 1 (Human alphaherpesvirus 2 [3]): 65000 M⁻¹ s⁻¹ | PC50 (Human alphaherpesvirus 2 [7]): 7.5 µM | TC50 (Human alphaherpesvirus 2 [5]): >250000 nM | K obs / 1 (Human alphaherpesvirus 3): 44000 M⁻¹ s⁻¹

Cc1csc2nc([C@H](C)NC(=O)/C=C/c3ccc([N+](=O)[O-])cc3)oc(=O)c12
IC50 [1]: 940 nM

Cc1csc2nc([C@H](C)NC(=O)/C=C/c3ccnc4ccccc34)oc(=O)c12
IC50 [1]: 250 nM | K obs / 1 (Human alphaherpesvirus 2 [3]): 76000 M⁻¹ s⁻¹ | K obs / 1 (Human alphaherpesvirus 3): 45000 M⁻¹ s⁻¹

Cc1csc2nc([C@H](C)NC(=O)/C=C/c3cc(Br)cs3)oc(=O)c12
IC50 [1]: 190 nM

Cc1csc2nc([C@H](C)NC(=O)/C=C/c3ccc(Br)s3)oc(=O)c12
IC50 [1]: 270 nM | CC50 (MRC5): 83000 nM | K obs / 1 (Human alphaherpesvirus 2 [3]): 12000 M⁻¹ s⁻¹ | PC50 (Human alphaherpesvirus 2 [4]): 8 µM | TC50 (Human alphaherpesvirus 2 [5]): >250000 nM | K obs / 1 (Human alphaherpesvirus 3): 63000 M⁻¹ s⁻¹

Cc1csc2nc([C@H](C)NC(=O)/C=C(\c3ccccc3)c3cccs3)oc(=O)c12
IC50 [1]: 260 nM

Cc1csc2nc([C@H](C)NC(=O)/C=C(\Sc3ccccc3)c3ccccc3)oc(=O)c12
IC50 (Human alphaherpesvirus 2 [8]): 3100 nM | IC50 (Cytomegalovirus [9]): 1900 nM

Cc1csc2nc([C@H](C)NC/C=C/c3ccccc3)oc(=O)c12
IC50 (Cytomegalovirus [10]): No inhibition | IC50 (Human alphaherpesvirus 2 [11]): No inhibition | IC50 [12]: No inhibition

Cc1csc2nc([C@H](C)NC(=O)/C=C/c3c(F)cccc3Cl)oc(=O)c12
IC50 [1]: 520 nM

Cc1csc2nc([C@H](C)NC(=O)/C=C/c3ccsc3Br)oc(=O)c12
IC50 [1]: 200 nM

Cc1ccc(/C=C/C(=O)N[C@@H](C)c2nc3scc(C)c3c(=O)o2)s1
IC50 [1]: 650 nM

COc1cc(/C=C/C(=O)N[C@@H](C)c2nc3scc(C)c3c(=O)o2)cc(OC)c1
IC50 [1]: 350 nM
